Laboratory results as given in paper PMC5513037, “Examining the influence of specificity ligands and ATP-competitive ligands on the overall effectiveness of bivalent kinase inhibitors” (Proteome Science, 2017).

Key:
Test in all cases: KAM-matrix competition in K562 lysate;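 on 0.001 uM KAM: median log10 fold change of treatment over DMSO control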
Type in all cases: binding
MAP2K5 = target: T1, MAP2K5 (Homo sapiens, UniProt Q13163); settings: relative to 0 uM KAM = 0;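 further: median log10 fold change of treatment over DMSO control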
T1 construct: endogenous in cells; host or cells: K562
T1 sequence (Q13163 1-448): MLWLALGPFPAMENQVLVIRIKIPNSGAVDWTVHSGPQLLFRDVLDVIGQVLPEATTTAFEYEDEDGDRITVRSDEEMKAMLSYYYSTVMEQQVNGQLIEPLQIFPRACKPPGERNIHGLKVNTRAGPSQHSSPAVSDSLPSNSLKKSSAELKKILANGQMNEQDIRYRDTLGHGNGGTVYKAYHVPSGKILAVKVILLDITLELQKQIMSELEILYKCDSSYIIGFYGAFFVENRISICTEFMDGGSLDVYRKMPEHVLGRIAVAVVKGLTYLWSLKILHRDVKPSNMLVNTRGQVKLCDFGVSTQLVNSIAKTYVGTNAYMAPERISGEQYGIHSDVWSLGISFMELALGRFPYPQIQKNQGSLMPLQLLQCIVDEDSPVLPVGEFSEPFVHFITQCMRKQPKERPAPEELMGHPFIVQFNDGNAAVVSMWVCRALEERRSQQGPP
Procedure: Supplement 12953_2017_125_MOESM1_ESM.zip/MS_Supp Info.xlsx, sheet "KAM" | column: 10 uM KAM; 1 uM KAM; 0.1 uM KAM; 0.01 uM KAM

PHKG1 = target: T2, PHKG1 (Homo sapiens, UniProt Q16816)
T2 construct: endogenous in cells; host or cells: K562
Procedure: (§1) Supplement 12953_2017_125_MOESM1_ESM.zip/MS_Supp Info.xlsx, sheet "KAM" | column: 10 uM KAM; 1 uM KAM; 0.1 uM KAM; 0.01 uM KAM; 0.001 uM KAM; RB50

PKN1 = target: T3, PKN1 (Homo sapiens, UniProt Q16512);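 on 0.001 uM KAM: median log10 fold change of treatment over DMSO control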;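 on 0.01 uM KAM: median log10 fold change of treatment over DMSO control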;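 on 0.1 uM KAM: median log10 fold change of treatment over DMSO control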;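 on 1 uM KAM: median log10 fold change of treatment over DMSO control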;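 on 10 uM KAM: median log10 fold change of treatment over DMSO control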
T3 construct: endogenous in cells; host or cells: K562
Procedure: as §1

STK16 = target: T4, STK16 (Homo sapiens, UniProt O75716)
T4 construct: K562 cell pellets were thawed on ice and resuspended in cold Lysis buffer; endogenous in cells; host or cells: K562
Procedure: as §1

MARK4 = target: T5, MARK4 (Homo sapiens, UniProt Q96L34)
T5 construct: K562 cell pellets were thawed on ice and resuspended in cold Lysis buffer; endogenous in cells; host or cells: K562
T5 sequence (Q96L34 1-752): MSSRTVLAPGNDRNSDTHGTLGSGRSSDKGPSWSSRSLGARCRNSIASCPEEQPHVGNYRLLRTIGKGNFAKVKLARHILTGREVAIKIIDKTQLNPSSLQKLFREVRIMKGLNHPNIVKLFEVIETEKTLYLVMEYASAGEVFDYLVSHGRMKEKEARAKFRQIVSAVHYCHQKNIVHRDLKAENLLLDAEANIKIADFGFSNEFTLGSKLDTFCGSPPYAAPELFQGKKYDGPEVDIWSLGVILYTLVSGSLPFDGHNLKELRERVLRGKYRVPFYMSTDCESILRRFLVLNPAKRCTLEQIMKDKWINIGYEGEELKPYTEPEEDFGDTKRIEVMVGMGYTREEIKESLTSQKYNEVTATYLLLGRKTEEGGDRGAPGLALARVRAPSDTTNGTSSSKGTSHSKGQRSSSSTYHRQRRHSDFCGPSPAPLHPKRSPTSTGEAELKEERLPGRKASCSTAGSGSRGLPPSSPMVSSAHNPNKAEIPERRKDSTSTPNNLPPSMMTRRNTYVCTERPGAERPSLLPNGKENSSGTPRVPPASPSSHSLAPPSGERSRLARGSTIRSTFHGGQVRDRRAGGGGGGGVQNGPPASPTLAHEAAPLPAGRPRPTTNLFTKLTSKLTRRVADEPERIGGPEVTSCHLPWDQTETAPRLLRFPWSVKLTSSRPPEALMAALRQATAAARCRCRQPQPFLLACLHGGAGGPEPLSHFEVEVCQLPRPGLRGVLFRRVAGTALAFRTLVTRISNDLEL
Procedure: as §1

FGFR3 = target: T6, FGFR3 (Homo sapiens, UniProt P22607)
T6 construct: endogenous in cells; host or cells: K562
Procedure: as §1

[1] = read-out: RB50 (the source's name)

T2 sequence (Q16816 whole entry): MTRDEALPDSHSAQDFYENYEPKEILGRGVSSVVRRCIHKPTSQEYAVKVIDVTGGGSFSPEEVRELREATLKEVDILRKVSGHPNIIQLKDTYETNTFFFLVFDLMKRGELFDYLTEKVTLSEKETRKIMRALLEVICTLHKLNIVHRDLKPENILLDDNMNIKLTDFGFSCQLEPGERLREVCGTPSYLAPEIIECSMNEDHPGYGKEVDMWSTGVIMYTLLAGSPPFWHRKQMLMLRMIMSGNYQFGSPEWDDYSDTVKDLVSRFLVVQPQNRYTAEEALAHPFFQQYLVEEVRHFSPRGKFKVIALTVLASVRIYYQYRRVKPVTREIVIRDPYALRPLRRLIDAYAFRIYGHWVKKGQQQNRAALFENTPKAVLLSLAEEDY
T6 sequence (P22607 23-806): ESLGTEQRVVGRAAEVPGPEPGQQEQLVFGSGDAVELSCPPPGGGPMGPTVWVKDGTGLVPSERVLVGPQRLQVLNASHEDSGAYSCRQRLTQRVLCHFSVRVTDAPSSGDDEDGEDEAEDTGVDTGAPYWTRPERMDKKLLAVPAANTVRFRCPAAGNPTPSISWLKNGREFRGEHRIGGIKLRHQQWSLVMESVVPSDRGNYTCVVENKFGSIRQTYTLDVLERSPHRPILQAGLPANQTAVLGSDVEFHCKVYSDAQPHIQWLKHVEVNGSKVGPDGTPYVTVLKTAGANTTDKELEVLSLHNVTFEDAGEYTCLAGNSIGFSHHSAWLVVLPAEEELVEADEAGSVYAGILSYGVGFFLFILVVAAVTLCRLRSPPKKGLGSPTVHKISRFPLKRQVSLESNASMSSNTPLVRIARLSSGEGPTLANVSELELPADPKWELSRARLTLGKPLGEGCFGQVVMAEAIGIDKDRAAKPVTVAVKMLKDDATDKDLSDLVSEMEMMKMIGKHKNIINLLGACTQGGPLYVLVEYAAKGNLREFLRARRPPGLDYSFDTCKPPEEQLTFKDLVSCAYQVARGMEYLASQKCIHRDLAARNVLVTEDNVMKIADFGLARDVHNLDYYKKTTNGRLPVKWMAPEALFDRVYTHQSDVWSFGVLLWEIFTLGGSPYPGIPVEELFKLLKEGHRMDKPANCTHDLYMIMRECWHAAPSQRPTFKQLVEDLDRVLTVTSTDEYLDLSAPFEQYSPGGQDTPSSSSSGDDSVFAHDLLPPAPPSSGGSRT
T4 sequence (O75716 whole entry): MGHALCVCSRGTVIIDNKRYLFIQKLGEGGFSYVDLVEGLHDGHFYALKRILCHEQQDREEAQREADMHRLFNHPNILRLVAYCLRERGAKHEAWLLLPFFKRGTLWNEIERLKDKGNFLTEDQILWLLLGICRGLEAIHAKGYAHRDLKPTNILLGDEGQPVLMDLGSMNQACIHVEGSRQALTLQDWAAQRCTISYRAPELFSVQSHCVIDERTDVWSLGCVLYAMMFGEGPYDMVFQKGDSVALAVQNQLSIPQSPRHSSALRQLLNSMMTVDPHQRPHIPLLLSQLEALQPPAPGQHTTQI
T3 sequence (Q16512 whole entry): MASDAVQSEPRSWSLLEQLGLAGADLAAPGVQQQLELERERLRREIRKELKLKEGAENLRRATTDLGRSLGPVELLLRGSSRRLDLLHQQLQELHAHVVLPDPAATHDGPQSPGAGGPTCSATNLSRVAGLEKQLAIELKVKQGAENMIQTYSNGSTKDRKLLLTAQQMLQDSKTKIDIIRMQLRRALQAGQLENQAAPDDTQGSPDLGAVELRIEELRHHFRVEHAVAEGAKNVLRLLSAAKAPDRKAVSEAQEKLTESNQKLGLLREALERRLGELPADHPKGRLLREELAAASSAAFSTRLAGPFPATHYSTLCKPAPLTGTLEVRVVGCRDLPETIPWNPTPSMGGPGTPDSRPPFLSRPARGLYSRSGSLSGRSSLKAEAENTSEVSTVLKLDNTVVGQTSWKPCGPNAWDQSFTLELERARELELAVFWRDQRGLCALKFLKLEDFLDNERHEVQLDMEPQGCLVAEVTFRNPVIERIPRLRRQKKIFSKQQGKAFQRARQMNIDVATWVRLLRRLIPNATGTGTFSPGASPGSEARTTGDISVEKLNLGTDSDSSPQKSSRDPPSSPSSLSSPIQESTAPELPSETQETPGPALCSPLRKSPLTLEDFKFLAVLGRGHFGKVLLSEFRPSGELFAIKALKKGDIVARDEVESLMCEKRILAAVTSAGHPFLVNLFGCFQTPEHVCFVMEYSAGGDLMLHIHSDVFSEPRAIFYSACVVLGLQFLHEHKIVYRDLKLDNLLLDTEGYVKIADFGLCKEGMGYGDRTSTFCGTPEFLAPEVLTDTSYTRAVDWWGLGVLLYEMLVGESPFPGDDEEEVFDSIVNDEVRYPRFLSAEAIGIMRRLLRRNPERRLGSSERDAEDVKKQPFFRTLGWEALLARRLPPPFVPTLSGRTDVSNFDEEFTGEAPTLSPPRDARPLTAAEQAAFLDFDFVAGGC

N#CCc1ccc(Nc2nc(NCCCN)cc(Nc3cc(C4CC4)[nH]n3)n2)cc1 [KAM]
0.01 uM KAM (MAP2K5): 0.01409 | 0.1 uM KAM (MAP2K5): -0.1362 | 1 uM KAM (MAP2K5): -0.4773 | 10 uM KAM (MAP2K5): -0.5729 | median Log10 fold change (PHKG1; 0.001 uM KAM): -0.0673 | median Log10 fold change (PHKG1; 0.01 uM KAM): -0.04082 | median Log10 fold change (PHKG1; 0.1 uM KAM): -0.2109 | median Log10 fold change (PHKG1; 1 uM KAM): -0.4403 | median Log10 fold change (PHKG1; 10 uM KAM): -0.5431 | IC50 (PHKG1; [1]): 329 nM | IC50 (PKN1; KAM 0.001-10 uM, read-out: RB50 (the source's name)): > 10000 nM | 0.001 uM KAM (PKN1; relative to 0 uM KAM = 0): -0.02702 | 0.01 uM KAM (PKN1; relative to 0 uM KAM = 0): -0.01686 | 0.1 uM KAM (PKN1; relative to 0 uM KAM = 0): -0.08252 | 1 uM KAM (PKN1; relative to 0 uM KAM = 0): -0.1762 | 10 uM KAM (PKN1; relative to 0 uM KAM = 0): -0.2257 | median Log10 fold change (STK16; 0.001 uM KAM): -0.0101 | median Log10 fold change (STK16; 0.01 uM KAM): -0.01878 | median Log10 fold change (STK16; 0.1 uM KAM): -0.1698 | median Log10 fold change (STK16; 1 uM KAM): -0.3768 | median Log10 fold change (STK16; 10 uM KAM): -0.4318 | IC50 (STK16; [1]): 673 nM | median Log10 fold change (MARK4; 0.001 uM KAM): -0.09809 | median Log10 fold change (MARK4; 0.01 uM KAM): -0.06359 | median Log10 fold change (MARK4; 0.1 uM KAM): -0.2055 | median Log10 fold change (MARK4; 1 uM KAM): -0.3566 | median Log10 fold change (MARK4; 10 uM KAM): -0.4457 | IC50 (MARK4; [1]): 604 nM | median Log10 fold change (FGFR3; 0.001 uM KAM): 0.01443 | median Log10 fold change (FGFR3; 0.01 uM KAM): 0.001015 | median Log10 fold change (FGFR3; 0.1 uM KAM): -0.1738 | median Log10 fold change (FGFR3; 1 uM KAM): -0.319 | median Log10 fold change (FGFR3; 10 uM KAM): -0.3424 | IC50 (FGFR3; [1]): 1160 nM
